Experimental data reported in patent US20130183418A1, “METHOD OF INHIBITION OF ENZYMATIC BROWNING IN FOOD USING A SULFINIC ACID COMPOUND” (UNIVERSITY OF FLORIDA RESEARCH FOUNDATION, INC., priority 2008, published 2013).

System: apple polyphenol oxidase
Test: Polyphenol oxidase assay, color formation from catechol at 420 nm
Type: biochemical, Red Delicious apples
Settings: for Average % Inhibition of apple PPO: average ± standard deviation, n = 6; for apple PPO activity: n=3, control 0.24±0.02
Procedure: Acetone powder containing apple polyphenol oxidase was prepared from Red Delicious apples. Cored and peeled apple pieces (200 g) were homogenized in a precooled blender along with 400 mL cold acetone (−20° C.) for 1 min and then filtered through Whatman No. 1 filter paper. The residue was extracted 3 times with 200 mL cold acetone and the resulting white powder was dried at room temperature, vacuum sealed in commercial plastic bags, and stored at −20° C. until needed. Crude PPO enzyme from the acetone powder was reconstituted in 0.1 M KH2PO4/Na2HPO4, pH 7.2 Containing 1% Triton X-100 (Bio-Rad Laboratories, Hercules, Calif.) using modified procedures of Murata et al. “Relationship between apple ripening and browning—changes in polyphenol content and polyphenol oxidase”, Journal of Agricultural and Food Chemistry 1995, 43 (5), 1115-21 and Yemenicioglu et al. “Heat inactivation kinetics of apple polyphenoloxidase and activation of its latent form”, Journal of Food Science 1997, 62 (3): 508-10. Acetone powder (1 g) was added to 50 mL of refrigerated 0.1 M KH2PO4/Na2HPO4, pH 7.2 buffer containing 1% TritonX-100 (Bio-Rad Laboratories, Hercules, Calif.) and the mixture was stirred for 20 min at 4° C. The suspension was centrifuged at 1200×g for 30 min, then filtered through glass wool and stored at −20° C. where it remained stable for at least 1 month.
A standard reaction mixture for evaluation of browning inhibition where the hypotaurine comprising solution was a mussel extract, consisted of 2.45 mL of 0.1 sodium acetate/acetic acid buffer, pH 5.5, 0.2 ml mussel extract (or additional pH 5.5 buffer for a control run for comparison), 0.3 mL of 0.5 M catechol (Sigma, St. Louis, Mo.) and 0.05 mL of enzyme extract. The percent inhibition was calculated with the following formula: I=100*(A-B)/A, where A and B are the greatest initial linear rate of the control and the test system respectively.
Polyphenol oxidase activity was measured by monitoring the increase in color (absorbance at 420 nm) in a reaction mixture with catechol as a substrate. […] From the data in FIG. 1, the inhibition of polyphenol oxidase by 90 ppm of hypotaurine was calculated to be 97 percent with a 30 fold decrease in the rate of browning. The mussel extract was employed in a similar manner and inhibition was calculated to be 93 percent with a 14 fold decrease in the rate of browning. […]

[1] = 90 ppm of hypotaurine, catechol substrate, FIG. 1

Average % Inhibition of apple PPO (67.5 μM) [%]	Average % Inhibition of apple PPO (250 μM) [%]	Average % Inhibition of apple PPO (500 μM) [%]	Average % Inhibition of apple PPO (500 μM, listed as methane sulfinic acid) [%]	apple PPO activity (67.5 μM)	apple PPO activity (250 μM)	apple PPO activity (500 μM)	inhibition of apple PPO (in words) (67.5 to 500 μM)	Compound	Average % Inhibition of apple PPO (500 μM, listed as hypotaurine) [%]	fold decrease in the rate of browning [1] [fold]	inhibition of polyphenol oxidase [1] [%]
33.7 ± 0.69	96.8 ± 0.69	99.8 ± 0.11	100	–	–	–	–	CS(=O)O [Methane Sulfinic Acid, methane sulfinic acid]	–	–	–
20.9 ± 16.15	98.5 ± 1.28	100	–	–	–	–	–	O=S(O)c1ccccc1 [Benzene Sulfinic Acid, benzene sulfinic acid]	–	–	–
–	–	–	–	0.23±0.04 ΔA420 nm/min	0.25±0.01 ΔA420 nm/min	0.23±0.01 ΔA420 nm/min	did not inhibit	NCCS(=O)(=O)O [Taurine, reference compound]	–	–	–

Compound	Average % Inhibition of apple PPO (67.5 μM) [%]	Average % Inhibition of apple PPO (250 μM) [%]	Average % Inhibition of apple PPO (500 μM) [%]	Average % Inhibition of apple PPO (500 μM, listed as methane sulfinic acid) [%]	apple PPO activity (67.5 μM)	apple PPO activity (250 μM)	apple PPO activity (500 μM)	inhibition of apple PPO (in words) (67.5 to 500 μM)	Average % Inhibition of apple PPO (500 μM, listed as hypotaurine) [%]	fold decrease in the rate of browning [1] [fold]	inhibition of polyphenol oxidase [1] [%]
NCCS(=O)O [Hypotaurine, 2-aminoethane sulfinic acid]	39.1 ± 4.48	80.0 ± 14.90	89.8 ± 7.65	–	–	–	–	–	89	30	97
